Laboratory results from patent US4536335A, “Carbapenem antibiotics” (Bristol-Myers Company, priority 1983, dated 1985).
Converted amounts (≈) assume the structure as drawn. Where two headings read alike, the source gives them in different places.

Assays:
S. pneumoniae A-9585 = assay: In vitro MIC, tube dilution; assay type: cell-based; conditions: Streptococcus pneumoniae, A9585, Nutrient Broth, overnight incubation at 37° C., additional data table
S. pyogenes A-9604 = assay: In vitro MIC, tube dilution; assay type: cell-based; conditions: Streptococcus pyogenes, A9604, tube dilution, Nutrient Broth, overnight incubation at 37° C.; additional data table
S. aureus A-9537 = assay: In vitro MIC, tube dilution; assay type: cell-based; conditions: Staphylococcus aureus, overnight incubation at 37° C., additional data table
[1] = tested on: S. aureus A-9606 (Pen-res.); assay: In vitro MIC, tube dilution; assay type: cell-based; conditions: Staphylococcus aureus, Nutrient Broth, overnight incubation at 37° C., additional data table, read-out: MIC S. aureus (Pen-res.) A-9606
S. faecalis A20688 = assay: In vitro MIC, tube dilution; assay type: cell-based; conditions: tube dilution, Nutrient Broth, overnight incubation at 37° C.; additional data table
E. coli A15119 = assay: In vitro MIC, tube dilution; assay type: cell-based; conditions: tube dilution, Nutrient Broth, overnight incubation at 37° C.; additional data table
E. coli A20341-1 = assay: In vitro MIC, tube dilution; assay type: cell-based; conditions: tube dilution, Nutrient Broth, overnight incubation at 37° C.; additional data table
K. pneumoniae A-9664 = assay: In vitro MIC, tube dilution; assay type: cell-based; conditions: tube dilution, Nutrient Broth, overnight incubation at 37° C.; additional data table
K. pneumoniae A20468 = assay: In vitro MIC, tube dilution; assay type: cell-based; conditions: tube dilution, Nutrient Broth, overnight incubation at 37° C.; additional data table
P. mirabilis A-9900 = assay: In vitro MIC, tube dilution; assay type: cell-based; conditions: Proteus mirabilis, A9900, tube dilution, Nutrient Broth, overnight incubation at 37° C.; additional data table
P. vulgaris A21559 = assay: In vitro MIC, tube dilution; assay type: cell-based; conditions: tube dilution, Nutrient Broth, overnight incubation at 37° C.; additional data table
P. morganii A15153 = assay: In vitro MIC, tube dilution; assay type: cell-based; conditions: tube dilution, Nutrient Broth, overnight incubation at 37° C.; additional data table
P. rettgeri A22424 = assay: In vitro MIC, tube dilution; assay type: cell-based; conditions: tube dilution, Nutrient Broth, overnight incubation at 37° C.; additional data table
S. marcescens A20019 = assay: In vitro MIC, tube dilution; assay type: cell-based; conditions: tube dilution, Nutrient Broth, overnight incubation at 37° C.; additional data table
E. cloacae A-9656 = assay: In vitro MIC, tube dilution; assay type: cell-based; conditions: Enterobacter cloacae, A9656, tube dilution, Nutrient Broth, overnight incubation at 37° C.; additional data table
P. aeruginosa A-9843A = assay: In vitro MIC, tube dilution; assay type: cell-based; conditions: Pseudomonas aeruginosa, A9843A, Nutrient Broth, overnight incubation at 37° C., additional data table
P. aeruginosa A21213 = assay: In vitro MIC, tube dilution; assay type: cell-based; conditions: Pseudomonas aeruginosa, A21213, tube dilution, Nutrient Broth, overnight incubation at 37° C.; additional data table
E. cloacae A-9659 = assay: In vitro MIC, tube dilution; assay type: cell-based; conditions: tube dilution, Nutrient Broth, overnight incubation at 37° C.; additional data table
Text: N-formimidoyl thienamycin was included as a comparison compound.

S. aureus A-9606 = assay: Protective effect in the intramuscular treatment of infected mice (PD50); assay type: in vivo; conditions: Staphylococcus aureus, A9606, im; mice infected i.p. (Ex. 2: 2 × 10^9 organisms; Ex. 4 and 5: ~9 × 10^7), treated i.m. 0 and 2 h postinfection; read-out: PD50/treatment, S. aureus A-9606
Method: The PD50 (dose in mg/kg required to give protection to 50% of the infected mice) is indicated.
were treated i.m. with drugs 0 and 2 h postinfection.

[2] = Blood levels in mice after intramuscular administration; assay type: in vivo; conditions: mouse, intramuscular dose of 20 mg/kg; 20 mg/kg
Text: Compounds were solubilized in 0.1 M phosphate buffer pH 7. Values are fro
a single test; 4 mice used per compound.
*t1/2 refers to halflife in minutes
**AUC refers to the area under the blood concentrationtime curve
(§1) Also shown is the urinary recovery in the mice.
Compounds were solubilized in 0.1 M phosphate buffer, pH 7.
Values based on a single test; 4 mice per compound.
*T1/2 refers to halflife in minutes

[3] = Urinary recovery after intramuscular administration to mice; assay type: in vivo; conditions: mouse, intramuscular dose of 20 mg/kg, 0-6 hour collection, 360 min
Method: Compounds were solubilized in 0.1 M phosphate buffer pH 7. Values are from a single test; 4 mice per compound.
as §1
***Recovery based on 0-6 hour collection

[4] = Half-life in phosphate buffer solution; assay type: physicochemical; conditions: 0.065 M, pH 7.4 phosphate buffer, 37° C.; listed as Fraction B
Method: A solution of para-nitrobenzyl 3-[2-(N-methylthiomorpholinium diphenylphosphate)ethylthio]-6α-[1'-(R)-hydroxyethyl]-7-oxo-1-azabicyclo[3.2.0]hept-2-ene-2-carboxylate (1.31 g, 1.76 mmol) in 0.1 M pH 7.4 phosphate buffer (48.8 mL), tetrahydrofuran (20 mL) and diethyl ether (20 mL) was hydrogenated over 10% pd/C (1.5 g) in a Parr shaker for 1 h at 40 psi. The reaction mixture was diluted with diethyl ether (40 mL) and the phases were separated. The organic phase was washed with water (2×5 mL). The aqueous phases were combined, filtered through a #52 hardened filter paper, washed with diethyl ether (2×20 mL) and pumped under vacuum. The aqueous solution was poured on a silica gel reverse phase column and the desired carbapenem was eluted with 5% acetonitrile-water.
To a solution of p-nitrobenzyl (5R,6S)-3-[2-(1-methylmorpholino)ethylthio]-6-[(R)-1-hydroxyethyl]-7-oxo-1-azabicyclo[3.2.0]hept-2-ene-2-carboxylate diphenylphosphate (0.360 g, 0.49 mmol) in 13 mL of phosphate buffer (0.05 M pH 7.4) was added 0.36 g of 10% palladium-on-charcoal, 20 mL of tetrahydrofuran and 20 mL of diethyl ether. This mixture was hydrogenated (Parr) at 32 psi for 1 h. The mixture was filtered through Celite and the filter pad was washed with H2 O and diethyl ether. The aqueous phase was separated and the pH was adjusted to 7.0 with additional pH 7.4 phosphate buffer. After removing residual organic solvents in vacuo the aqueous solution was applied to a C18 reverse-phase column.
To a solution of (5R,6S)paranitrobenzyl 3-[2-(1,4-dimethyl-1-piperazinium)ethylthio]-6-[1-(R)-hydroxyethyl]-7-oxo- 1-azabicyclo[3.2.0]hept-2-ene-2-carboxylate diphenylphosphate (0.47 g, 0.623 mmol) in wet tetrahydrofuran (25 mL) was added diethyl ether (25 mL), potassium phosphate monobasic-sodium hydroxide buffer (13 mL, pH 7.22) and 10% palladium on charcoal (0.47 g). The resulting mixture was hydrogenated at 23° C. under 40 psi for 1 h. The two layers were separated and the organic layer was extracted with water (2×7 mL).
To a cold (-10° C.) solution of (5R,6S)-3-[2 -(N-methyl-thiomorpholinium)ethylthio]-6-[1-(R)-hydroxyethyl]-7-oxo-1-azabicyclo(3.2.0)-hept-2-ene-2-carboxylate (608 mg, 1.65 mmol) in a 1:1 mixture of acetonitrile-water (9 mL) was added m-chloroperbenzoic acid (334.8 mg, 1.65 mmol) in small portion over a 1 hour period. The mixture was then diluted with water (15 mL) and washed with diethyl ether (3×15 mL).
A mixture of (5R,6S) paranitrobenzyl 3-[2-(1,4,4-trimethyl-1-piperazinium)ethylthio]-6-[1R-hydroxyethyl]-7-oxo- 1-azabicyclo(3.2.0)hept-2-ene-2-carboxylate bischloride (0.40 g, 0.68 mmol), phosphate buffer (30 mL, 0.05M, pH 7.0), tetrahydrofuran (10 mL), ether (30 mL) and 10% palladium on charcoal (0.40 g) was hydrogenated at 23° C. under 35 psi for 1 h. The two phases were separated. The organic phase was extracted with water (10 mL).

## C[C@@H](O)[C@H]1C(=O)N2C(C(=O)[O-])=C(SCC[N+]3(C)CC[S+]([O-])CC3)C[C@H]12 (single isomer, unassigned) [Ex. 5 comp. B]
S. pneumoniae A-9585
  MIC: 0.004 µg/mL (≈ 0.0103 µM)
S. pyogenes A-9604
  MIC: 0.008 µg/mL (≈ 0.0206 µM)
S. aureus A-9537; A9537, 50% serum, tube dilution, read-out: MIC S. aureus-50% serum A-9537
  MIC: 0.06 µg/mL (≈ 0.154 µM)
S. aureus A-9537; A9537, tube dilution, Nutrient Broth, read-out: MIC S. aureus A-9537
  MIC: 0.03 µg/mL (≈ 0.0772 µM)
[1]
  MIC: 0.06 µg/mL (≈ 0.154 µM)
S. faecalis A20688
  MIC S. faecalis A20688: 1 µg/mL (≈ 2.57 µM)
E. coli A15119
  MIC E. coli A15119: 0.13 µg/mL (≈ 0.335 µM)
E. coli A20341-1
  MIC E. coli A20341-1: 0.13 µg/mL (≈ 0.335 µM)
K. pneumoniae A-9664
  MIC K. pneumoniae A-9664: 0.25 µg/mL (≈ 0.643 µM)
K. pneumoniae A20468
  MIC K. pneumoniae A20468: 0.5 µg/mL (≈ 1.29 µM)
P. mirabilis A-9900
  MIC: 0.25 µg/mL (≈ 0.643 µM)
P. vulgaris A21559
  MIC P. vulgaris A21559: 0.25 µg/mL (≈ 0.643 µM)
P. morganii A15153
  MIC M. morganii A15153: 0.5 µg/mL (≈ 1.29 µM)
P. rettgeri A22424
  MIC P. rettgeri A22424: 1 µg/mL (≈ 2.57 µM)
S. marcescens A20019
  MIC S. marcescens A20019: 0.25 µg/mL (≈ 0.643 µM)
E. cloacae A-9656
  MIC: 0.25 µg/mL (≈ 0.643 µM)
P. aeruginosa A-9843A
  MIC: 63 µg/mL (≈ 162 µM)
P. aeruginosa A21213
  MIC: 32 µg/mL (≈ 82.4 µM)
E. cloacae A-9659
  MIC E. cloacae A-9659: 0.5 µg/mL (≈ 1.29 µM)
S. aureus A-9606
  ED50: 0.39 mg/kg
[2]
  Blood AUC: 4600 ng·h/mL
  Blood Cmax: 12600 ng/mL
  Blood T1/2: 0.167 h
[3]
  Urine Recovery: 15 ± 3%
[4]
  T 1/2 (solution stability): 10.75 h
